From patent US20240299591A1, “Antimicrobial Peptides and Their Use” (priority 2021, published 2024)
≈ marks a conversion by molar mass, not a printed value. Entries after “also recorded” stand apart in the source; their conditions may differ. Where a SMILES comes first, the peptide text is derived from it.

How the values were obtained:
A. fumigatus = experiment: Live cell imaging of A. fumigatus in co-cultures with A549; format: cell-based, Aspergillus fumigatus; settings: 2.5 µM, 10 min after addition, 37° C. in RPMI
F. oxysporum = experiment: Minimum inhibitory concentration, F. oxysporum; format: cell-based, Fusarium oxysporum; settings: 5 × 10^5, 10% Vogel's
Description: F. oxysporum was grown in liquid potato dextrose broth (PDB) at 28° C. with shaking (170 rpm) for 5 days. The suspension was filtered through folded Miracloth (4 layers) and centrifuged for 10 min at RT. The supernatant was discard and the pellet was resuspend in 1.5 mL of sterile dH2O and quantified.

YFP-A. fumigatus = experiment: Ex vivo porcine cornea infected with YFP-A. fumigatus, topical treatment, confocal live-cell imaging; set-up: species or system Aspergillus fumigatus
Description: FIG. 6 contains images of ex vivo corneas infected with YFP-A. fumigatus treated with either PBS or MFIGAF001. All cornea were treated with one drop of reagent every 2 hours for the first 8 hours, then one drop every 8 hours for the remaining 16 hours. Treatment was continued for 72 hours with this treatment regimen. MFIGAF001 was used at 100 mg/L.
FIG. 7 contains images of an ex vivo cornea infected with A. fumigatus treated with MFIGAF001, using the fluorescent confocal live-cell imaging approach with a yellow fluorescent protein (YFP). The yellow fluorescent signal (yellow in the original graphs, white reproduced here) indicates the live fungal burden that penetrated into the corneal tissue. All cornea were treated with one drop of reagent every 2 hours for the first 8 hours, then one drop every 8 hours for the remaining 16 hours. Treatment was continued for 72 hours with this treatment regimen. MFIGAF001 was used at 100 mg/L.
FIG. 8 contains images of an ex vivo cornea infected with A. fumigatus treated with either Natamycin or MFIGAF001, using the fluorescent confocal live-cell imaging approach with a YFP. All cornea were treated with one drop of reagent every 2 hours for the first 8 hours, then one drop every 8 hours for the remaining 16 hours. […]
YFP-A. fumigatus spores were harvested from 3 days old cultures grown on SAB agar at 37° C. in PBST and quantified using a haemocytometer. […]

A. fumigatus (MFIG001) = experiment: Minimum inhibitory concentration, A. fumigatus; format: cell-based, Aspergillus fumigatus; settings: 5 × 10^5, 10% Vogel's
Description: Aspergillus fumigatus strains were grown on Sabouraud dextrose agar (SAB agar) at 37° C. for 3 days. Conidia were collected in phosphate-buffered saline supplemented with 0.1% tween-20 (PBST) by gently scraping a spatula over the fungal colony surface. The spore solutions were then passed through autoclaved Miracloth to remove any hyphal residues and stored at 4° C. The spores were counted and the concentrations was determined in the same was as described for N. crassa.

Aspergillus fumigatus = format: cell-based
Description: The assays were performed using Nunc 262162 U96 polystyrene round bottomed clear plates (www.nuncbrand.com).
When testing the peptides against A. fumigatus, peptides at different concentrations were mixed with A. fumigatus conidia to reach a final volume of 100 μL per well. The final conidial concentration was 5×10^5 cells/mL in 10% Vogel's medium. After 24 h of incubation at 37° C. in 96 well plates, fungal growth with the different peptide concentrations was determined by measurement of the optical density at 610 nm in a TriStar LB 941 Multimode Microplate Reader. The IC50 values were determined using four parameter logistic regression formula provided by Sigma Plot 10.0. Values are represented as means±SEM from two independent experiments (n=3).
The IC50 of the fluorescently labelled peptides cannot be accurately determined using the optical density method described in the last section. This is because the fluorophore structures absorbed light at 610 nm which was the wavelength used for the optical density measurements. In order to overcome this, the BacTiter-Glo™ Microbial Cell Viability Assay kit purchased from Promega was used. The BacTiter-Glo™ Reagent relies on the properties of a proprietary thermostable luciferase (Ultra-Glo™ Recombinant Luciferase) and a proprietary formulation for extracting ATP from fungal cells which will generates a ‘glow-type’ luminescent signal. This is produced by the luciferase reaction shown in Scheme 1, which has a signal half-life of over 30 min depending on the experimental conditions. The luminescent signal is proportional to the amount of ATP present, which is directly proportional to the number of living cells in culture.
The IC50 assays for all fluorescently labelled peptides were performed using Greiner CELLSTAR white polystyrene wells flat bottomed 96 well plates. The incubation conditions remained the same for the optical density measurement described in the previous section. Once the incubation procedure was finished, the plate was equilibrated to room temperature. A mixture of BacTiter-Glo™ buffer and substrate was then added to the plate (100 μL per well). The plate was shaken for 5 min and read using the Tristar […] luminometer. Data analysis was performed using Sigma Plot 10.0. All values shown are presented as means±SEM from two independent experiments (n=3).

N=C(N)NCCC[C@@H]1NC(=O)CNC(=O)[C@H](Cc2c[nH]c3ccccc23)NC(=O)[C@H](Cc2ccccc2)NC(=O)[C@H](Cc2c[nH]c3ccccc23)NC(=O)[C@@H](Cc2ccccc2)NC(=O)[C@H](CCCCN)NC(=O)[C@H](CCCCN)NC1=O [MFIGAF001, Cyclo(Arg-Lys-Lys-phe-Trp-Phe-Trp-Gly)] (HELM PEPTIDE1{F.W.G.R.K.K.[dF].W}$PEPTIDE1,PEPTIDE1,1:R1-8:R2$$$V2.0)
Selective labelling of A. fumigatus over A549 (A. fumigatus): selectively labels A. fumigatus
MIC (F. oxysporum): 6.25 µM (≈ 7.1 µg/mL)
Live fungal burden in ex vivo cornea (YFP-A. fumigatus; 100 mg/L topical drops, 72 h of treatment, vs saline): reduced fungal burden; also recorded: elimination of live fungal burden
Efficacy ex vivo compared with Natamycin (YFP-A. fumigatus; MFIGAF001 100 mg/L, Natamycin 120 mg/L, 72 hours): comparable efficacy
MIC (A. fumigatus (MFIG001)): 5 µM (≈ 5.68 µg/mL)
IC50 Aspergillus fumigatus (Aspergillus fumigatus; 24 h): 1.4 µg/mL (≈ 1.23 µM)
IC99 Aspergillus fumigatus (Aspergillus fumigatus; Conidia (10% Vogel's), 37° C., 24 h): 5.7 mg/L
IC50 value against major pathogenic fungi (in words) (Aspergillus fumigatus; various fungi, including Aspergillus fumigatus and Fusarium oxysporum): sub-micromolar
